Our source for the cell viability values is PMC11768629, “Potential Interaction of Pinocembrin with Drug Transporters and Hepatic Drug-Metabolizing Enzymes” (Pharmaceuticals, 2025).

Molecules are shown by their SMILES.

Data set [1] has as its system hOAT3-MDCK cells. Kind of data set: Cell viability assay (MTT) in hOAT3-MDCK cells. Type of data set: cell-based, canine. The settings on record: tenofovir 5 µM, 48 h. How it is done: (§1) The hOAT1-MDCK cells and hOAT3-MDCK cells were treated with 1, 10, and 50 μM pinocembrin for 24 h, followed by a measurement of ^3H-PAH and ^3H-estrone sulfate cellular accumulation. […] The inhibitory effect of pinocembrin occurred in a concentration-dependent manner.
(§2) We determined whether the inhibitory effect of pinocembrin on hOAT1 and hOAT3. We studied whether pinocembrin could reduce the renal toxicity of tenofovir, a substrate of hOAT1 and hOAT3 known for inducing renal tubular dysfunction.
(§3) The confluent cells in 96-well plates were treated with pinocembrin for 48 h at 37 °C. After that, the cells were incubated with 0.5 mg/mL MTT solution for four hours. The MTT solution was removed, and DMSO (100 µL) was added to dissolve the crystal formazan. The formazan content was detected at a wavelength of 570 nm using a microplate reader. Cell viability was reported as a percentage of the vehicle-treated cells.

The subject of data set [2] is hOAT1-MDCK cells. Kind of data set: Cell viability assay (MTT) in hOAT1-MDCK cells. Type of data set: cell-based, canine. The settings on record: tenofovir 5 µM, 48 h. How it is done:
as §1, §2, §3

In the case of `C[C@H](Cn1cnc2c(N)ncnc21)OCP(=O)(O)O` [tenofovir], the values for the cell viability result in data set [1] and in data set [2] were “did not affect the viability” and “significantly reduced the cell viability”, respectively.
